ChEMBL document CHEMBL1201862, “PubChem BioAssay data set” (2004)
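Cultured in 96-well plates, cells were exposed to test compound for 48 hours across five concentrations. GI50 is the concentration that inhibits growth by half.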 Calls of active or inactive are those of the source. Rule as the data show it: active = GI50 up to about 1.1 µM and inactive = higher.

Legend:
Assay in all cases: NCI-60 cell line screen, 48 h
HOP-92 = tested on: HOP-92
HOP-62 = tested on: HOP-62
IGROV-1 = tested on: IGROV-1
COLO 205 = tested on: COLO 205
UACC-62 = tested on: UACC-62
BT-549 = tested on: BT-549
UACC-257 = tested on: UACC-257
TK-10 = tested on: TK-10
MDA-MB-231 = tested on: MDA-MB-231
ACHN = tested on: ACHN
OVCAR-4 = tested on: OVCAR-4
CAKI-1 = tested on: CAKI-1
SR = tested on: SR
OVCAR-5 = tested on: OVCAR-5
MCF7 = tested on: MCF7
SNB-19 = tested on: SNB-19
786-0 = tested on: 786-0
T47D = tested on: T47D
SNB-75 = tested on: SNB-75

Measured: GI50

CCOC(=O)C(CCc1ncnc2c1ncn2Cc1ccccc1)(CCc1ncnc2c1ncn2Cc1ccccc1)C(=O)OCC
inactive: HOP-92 69.7 µM | HOP-62 > 100 µM | IGROV-1 89.9 µM | COLO 205 24.2 µM | UACC-62 26.2 µM | BT-549 76.6 µM | UACC-257 31.7 µM | TK-10 82.6 µM | MDA-MB-231 53.3 µM | ACHN 81.8 µM | OVCAR-4 59.4 µM | CAKI-1 51.8 µM | SR 26.4 µM | OVCAR-5 > 100 µM | MCF7 37.9 µM | SNB-19 > 100 µM | 786-0 41.1 µM

CCOC(=O)CCC(C(=O)OCC)n1nnc2cc(Nc3c(C)[n+]([O-])c4ccc(Cl)cc4[n+]3[O-])ccc21 (stereo not given)
inactive: HOP-92 50.8 µM | HOP-62 > 100 µM | IGROV-1 > 100 µM | COLO 205 44.8 µM | UACC-62 63.5 µM | BT-549 > 100 µM | UACC-257 54.1 µM | TK-10 > 100 µM | ACHN 60.7 µM | T47D 39.9 µM | OVCAR-4 79.8 µM | CAKI-1 57 µM | SR 48.6 µM | OVCAR-5 > 100 µM | MCF7 34.2 µM | SNB-75 93.1 µM | SNB-19 > 100 µM | 786-0 98.4 µM

CCOC(=O)/C(=C/Nc1c(C)n(C)n(-c2ccccc2)c1=O)C(C)=O
inactive: HOP-92 > 100 µM | IGROV-1 > 100 µM | COLO 205 > 100 µM | UACC-62 > 100 µM | BT-549 > 100 µM | UACC-257 > 100 µM | TK-10 > 100 µM | MDA-MB-231 > 100 µM | ACHN > 100 µM | OVCAR-4 > 100 µM | CAKI-1 > 100 µM | SR > 100 µM | OVCAR-5 > 100 µM | MCF7 > 100 µM | SNB-75 > 100 µM | 786-0 > 100 µM

C=C(Cl)C(C)(Cl)CCC(Br)C(C)(C)Cl (stereo not given)
inactive: HOP-92 18.8 µM | HOP-62 22 µM | IGROV-1 28.8 µM | COLO 205 17.3 µM | UACC-62 14.9 µM | BT-549 20.6 µM | UACC-257 15.9 µM | TK-10 > 100 µM | MDA-MB-231 15.2 µM | ACHN 17.5 µM | OVCAR-4 16.2 µM | CAKI-1 25.4 µM | SR 21.9 µM | OVCAR-5 21.5 µM | MCF7 16.6 µM | SNB-75 12.3 µM | SNB-19 51.5 µM | 786-0 17.5 µM

CN(N)/N=N/c1[nH]cnc1[N+](=O)[O-]
inactive: HOP-62 > 100 µM | IGROV-1 > 100 µM | COLO 205 > 100 µM | UACC-62 > 100 µM | BT-549 > 100 µM | UACC-257 > 100 µM | TK-10 > 100 µM | MDA-MB-231 21.7 µM | ACHN > 100 µM | T47D 20.6 µM | OVCAR-4 56.1 µM | CAKI-1 20.8 µM | OVCAR-5 > 100 µM | SNB-75 > 100 µM | 786-0 18.7 µM

N#Cc1c(-c2ccc(Cl)cc2)c2c(n(C3OC(CO)C(O)C(O)C3O)c1=S)CCCC2 (stereo not given)
inactive: HOP-92 46 µM | HOP-62 85.3 µM | IGROV-1 59.2 µM | COLO 205 38.3 µM | BT-549 25.5 µM | UACC-257 > 100 µM | TK-10 72.4 µM | MDA-MB-231 53.6 µM | ACHN 79.8 µM | OVCAR-4 82.2 µM | CAKI-1 > 100 µM | SR 39.2 µM | OVCAR-5 > 100 µM | MCF7 55.2 µM | SNB-75 > 100 µM | SNB-19 39.1 µM | 786-0 60.8 µM

CCOC(=O)/C(C(=S)NCc1ccccc1)=C(/N)N1CCCC1
inactive: HOP-92 > 100 µM | HOP-62 > 100 µM | IGROV-1 > 100 µM | COLO 205 > 100 µM | UACC-62 > 100 µM | UACC-257 > 100 µM | TK-10 > 100 µM | MDA-MB-231 > 100 µM | ACHN > 100 µM | T47D > 100 µM | OVCAR-4 > 100 µM | CAKI-1 > 100 µM | SR > 100 µM | OVCAR-5 > 100 µM | MCF7 > 100 µM | SNB-19 > 100 µM | 786-0 > 100 µM

C=C(Nc1nc2ccc(C)cc2s1)C(=O)C(CC)C(=O)C(CC)CC1C(=O)NC(=O)NC1=O (stereo not given)
inactive: HOP-92 > 100 µM | HOP-62 32 µM | IGROV-1 > 100 µM | COLO 205 > 100 µM | UACC-62 > 100 µM | BT-549 > 100 µM | UACC-257 > 100 µM | TK-10 > 100 µM | MDA-MB-231 > 100 µM | ACHN > 100 µM | OVCAR-4 > 100 µM | CAKI-1 > 100 µM | OVCAR-5 > 100 µM | MCF7 > 100 µM | SNB-75 > 100 µM | SNB-19 > 100 µM | 786-0 > 100 µM
